From publication PMC10447463, “Data-mining unveils structure–property–activity correlation of viral infectivity enhancing self-assembling peptides” (Nature Communications, 2023)

Experiments:
[1] = tested on: HIV-1 infection of TZM-bl cells; test: HIV-1 infectivity enhancement assay, β-galactosidase luminescence; format: cell-based; conditions: for Log10 Infection Rel EF-C: log10 of infection relative to EF-C, Figure 7B; for Inf. rel. EF-C: n-fold infection vs virus only, relative to that of EF-C, 1.3 µM peptide
[2] = format: physicochemical; conditions: for ThT Cat. / ThT-Fluorescence (categorical): ThT-active if fluorescence at least twice the control
Procedure, shortened: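 Fibrils (1 mg/mL solution) were mixed with 50 µM ThT in PBS for 15 min at RT, and fluorescence was read at λex 440/λem 488 nm against a PBS blank, as a triplicate mean ± SD. Zeta potential came from electrophoretic mobility (Smoluchowski) after 1 d aggregation at 1 mg/mL in PBS pH 7.4, diluted into 1 mM KCl.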

[3] = Zeta-potential measurement; format: physicochemical; conditions: for Zeta pot. / mV: 1 mg/mL in PBS pH 7.4 from 10 mg/mL DMSO stock, 1 d RT, 60 µL diluted in 600 µL 1 mM KCl, Zetasizer Nano ZS, Smoluchowski, mean of triplicate; for Zeta-Potential / mV: mean, Figure 7B
Procedure, shortened: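 One-day room-temperature aggregation at 1 mg/mL in PBS (pH 7.4) preceded measurement; samples then went into 1 mM KCl. Triplicates per sample, two independent experiments averaged.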

[4] = Turbidity, derived count rate of scattered light; format: physicochemical; conditions: log10 of derived count rate of scattered light, Figure 7B

Row | Substance | Log10 Infection Rel EF-C [1] | Inf. rel. EF-C [1] | ThT Cat. / ThT-Fluorescence (categorical) [2] | Zeta pot. / mV [3] | Zeta-Potential / mV [3] | Log10 Count Rate [4] | Tht rel to blank (42.1851851851852) ([2]; ThT fluorescence relative to blank, blank = 42.1851851851852) | Tht category (> 1.5 to blank = +) ([2]; category 1/0) | Zeta Pot. / mV [3] | Zeta category ( +1 = if > 4 mV;-1 = if < -4 mV; 0 = -4mV to 4 mV) [3]
1 | DFNKF [reference compound] | -1.07 | 0.08 | 0 (ThT-inactive (N-Fold <2)) | -11.8 mV | -11.77 mV | 3.027 | – | – | – | –
2 | GAITIG-NH2 [reference compound] | -1.35 | 0.04 | 0 (ThT-inactive (N-Fold <2)) | -5.4 mV | -5.36 mV | 1.474 | – | – | – | –
3 | GNNQQNY [reference compound] | -1.28 | 0.05 | 0 (ThT-inactive (N-Fold <2)) | -6.6 mV | -6.62 mV | 1.572 | – | – | – | –
4 | GQTVTK [reference compound] | -1.25 | 0.06 | 0 (ThT-inactive (N-Fold <2)) | -5.3 mV | -5.26 mV | 1.536 | – | – | – | –
5 | IIKIIK [reference compound] | -1.1 | 0.08 | 0 (ThT-inactive (N-Fold <2)) | -7.0 mV | -7 mV | 0.6128 | – | – | – | –
6 | NSGAITIG-NH2 [reference compound] | -1.26 | 0.05 | 0 (ThT-inactive (N-Fold <2)) | -8.4 mV | -8.45 mV | 1.294 | – | – | – | –
7 | RCELARTLKR [reference compound] | -1.06 | 0.09 | 0 (ThT-inactive (N-Fold <2)) | -0.9 mV | -0.85 mV | 1.893 | – | – | – | –
8 | RIRIQIC [PS07] | – | – | – | – | – | – | 1.32 | 0 (ThT-inactive (N-Fold <2)) | 16 mV | 1 (+1 = if > 4 mV)
9 | VLYVGSKT [reference compound] | -1.24 | 0.06 | 0 (ThT-inactive (N-Fold <2)) | -9.1 mV | -9.07 mV | 1.386 | – | – | – | –
10 | VQIVYK [reference compound] | -1.17 | 0.07 | 0 (ThT-inactive (N-Fold <2)) | -2.7 mV | -2.66 mV | 1.414 | – | – | – | –
